Test results reported in PMC4762448 (Journal of biomolecular screening, 2011).
Read-outs that look alike come from different tables or passages of the source.

Tests used:
[1] = biological target: Ls-AChBP (Lymnaea stagnalis, UniProt P58154); settings: cited from earlier work
[2] = 125I-Bgt displacement assay; cited from earlier work
[3] = biological target: T1, Ac-AChBP (Aplysia californica, UniProt Q8WSF8); assay: [3H] epibatidine competition scintillation proximity assay, Ac-AChBP; assay type: binding
T1 sequence (Q8WSF8 18-236 limits assumed): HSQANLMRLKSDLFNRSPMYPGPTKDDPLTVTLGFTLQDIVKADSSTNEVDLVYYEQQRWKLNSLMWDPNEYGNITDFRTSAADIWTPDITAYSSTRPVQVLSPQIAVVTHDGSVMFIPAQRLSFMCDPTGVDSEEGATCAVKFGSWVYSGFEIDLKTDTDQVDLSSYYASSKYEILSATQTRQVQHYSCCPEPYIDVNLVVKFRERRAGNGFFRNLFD

[4] = biological target: AcY55W-AChBP (Aplysia californica, UniProt Q8WSF8, Y72W); assay: [3H] epibatidine competition scintillation proximity assay, AcY55W-AChBP; assay type: binding
Sequence of AcY55W-AChBP (Q8WSF8 18-236 Y72W limits assumed): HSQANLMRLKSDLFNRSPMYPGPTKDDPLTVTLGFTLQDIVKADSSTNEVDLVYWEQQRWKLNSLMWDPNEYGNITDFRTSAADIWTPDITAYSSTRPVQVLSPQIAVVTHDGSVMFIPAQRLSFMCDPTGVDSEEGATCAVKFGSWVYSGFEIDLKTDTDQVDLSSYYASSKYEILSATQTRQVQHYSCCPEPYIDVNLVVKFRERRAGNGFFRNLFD

[5] = biological target: T2, α7nAChR (Homo sapiens, UniProt P36544); assay: LGIC-CNiFER FRET calcium sensor assay in HEK cells, α7nAChR; assay type: cell-based
T2 sequence (P36544 23-502): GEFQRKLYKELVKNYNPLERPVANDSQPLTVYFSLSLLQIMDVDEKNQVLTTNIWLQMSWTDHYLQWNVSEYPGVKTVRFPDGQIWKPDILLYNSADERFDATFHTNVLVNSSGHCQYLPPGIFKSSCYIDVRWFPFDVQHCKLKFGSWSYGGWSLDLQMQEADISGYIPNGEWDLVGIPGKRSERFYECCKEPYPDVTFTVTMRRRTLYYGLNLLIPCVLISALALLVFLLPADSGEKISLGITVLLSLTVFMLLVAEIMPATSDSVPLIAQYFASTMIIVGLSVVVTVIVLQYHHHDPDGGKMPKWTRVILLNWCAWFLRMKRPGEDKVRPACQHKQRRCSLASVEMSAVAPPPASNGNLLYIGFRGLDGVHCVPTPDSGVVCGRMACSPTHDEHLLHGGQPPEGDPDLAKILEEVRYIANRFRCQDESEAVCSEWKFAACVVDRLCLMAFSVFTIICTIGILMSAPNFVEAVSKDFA

[6] = tested on: AChBPs (Ls, Ac, and AcY55W); assay: [3H] epibatidine competition SPA, the three AChBPs together; assay type: binding; settings: 10 μM of each compound
[7] = biological target: T2, α7nAChR; assay type: cell-based
[8] = biological target: T3, 5-HT3A (Homo sapiens, UniProt P46098); assay: LGIC-CNiFER FRET calcium sensor assay in HEK cells, 5-HT3A; assay type: cell-based; settings: control at 0.1 μM
T3 sequence (P46098 24-478): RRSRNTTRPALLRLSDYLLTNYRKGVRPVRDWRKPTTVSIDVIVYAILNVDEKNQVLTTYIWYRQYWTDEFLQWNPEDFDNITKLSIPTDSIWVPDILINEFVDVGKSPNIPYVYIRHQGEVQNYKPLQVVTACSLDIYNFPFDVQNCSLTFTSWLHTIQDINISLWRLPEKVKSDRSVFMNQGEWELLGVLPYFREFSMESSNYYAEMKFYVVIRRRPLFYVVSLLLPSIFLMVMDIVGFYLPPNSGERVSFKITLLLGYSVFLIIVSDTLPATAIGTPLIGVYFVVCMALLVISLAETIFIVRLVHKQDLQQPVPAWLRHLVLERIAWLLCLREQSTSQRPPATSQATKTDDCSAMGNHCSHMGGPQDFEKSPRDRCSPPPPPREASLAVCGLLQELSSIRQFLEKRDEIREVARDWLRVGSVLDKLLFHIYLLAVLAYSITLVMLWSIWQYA

[9] = biological target: α1nAChR (Homo sapiens, UniProt P02708+Q07001); assay: LGIC-CNiFER membrane potential dye assay in HEK cells, α1nAChR; assay type: cell-based; settings: 0.1 µM
Sequence of α1nAChR (P02708 21-457): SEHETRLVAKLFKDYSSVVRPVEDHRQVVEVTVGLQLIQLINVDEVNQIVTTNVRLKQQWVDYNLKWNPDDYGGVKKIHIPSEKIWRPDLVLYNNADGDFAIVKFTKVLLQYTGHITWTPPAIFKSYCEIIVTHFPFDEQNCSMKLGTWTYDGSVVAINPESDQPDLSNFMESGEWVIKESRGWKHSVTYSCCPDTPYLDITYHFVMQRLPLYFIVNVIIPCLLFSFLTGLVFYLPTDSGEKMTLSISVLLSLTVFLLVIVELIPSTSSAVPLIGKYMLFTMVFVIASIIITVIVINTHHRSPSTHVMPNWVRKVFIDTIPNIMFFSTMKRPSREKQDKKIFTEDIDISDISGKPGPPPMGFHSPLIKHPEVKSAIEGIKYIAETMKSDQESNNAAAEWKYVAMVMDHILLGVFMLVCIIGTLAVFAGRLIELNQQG
Sequence of α1nAChR (P11230 24-501 partner): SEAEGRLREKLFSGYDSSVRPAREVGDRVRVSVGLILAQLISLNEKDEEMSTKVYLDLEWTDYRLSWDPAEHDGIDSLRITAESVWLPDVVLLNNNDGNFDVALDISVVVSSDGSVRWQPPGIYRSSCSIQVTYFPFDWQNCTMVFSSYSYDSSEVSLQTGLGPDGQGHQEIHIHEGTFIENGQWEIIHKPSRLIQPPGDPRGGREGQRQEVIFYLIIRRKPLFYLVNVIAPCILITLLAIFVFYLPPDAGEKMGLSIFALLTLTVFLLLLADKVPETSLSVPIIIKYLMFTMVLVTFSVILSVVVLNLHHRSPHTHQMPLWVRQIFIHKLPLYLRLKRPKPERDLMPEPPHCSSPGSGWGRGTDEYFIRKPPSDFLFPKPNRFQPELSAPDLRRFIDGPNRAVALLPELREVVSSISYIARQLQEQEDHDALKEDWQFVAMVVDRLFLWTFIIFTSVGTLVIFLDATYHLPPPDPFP
Sequence of α1nAChR (Q07001 22-517): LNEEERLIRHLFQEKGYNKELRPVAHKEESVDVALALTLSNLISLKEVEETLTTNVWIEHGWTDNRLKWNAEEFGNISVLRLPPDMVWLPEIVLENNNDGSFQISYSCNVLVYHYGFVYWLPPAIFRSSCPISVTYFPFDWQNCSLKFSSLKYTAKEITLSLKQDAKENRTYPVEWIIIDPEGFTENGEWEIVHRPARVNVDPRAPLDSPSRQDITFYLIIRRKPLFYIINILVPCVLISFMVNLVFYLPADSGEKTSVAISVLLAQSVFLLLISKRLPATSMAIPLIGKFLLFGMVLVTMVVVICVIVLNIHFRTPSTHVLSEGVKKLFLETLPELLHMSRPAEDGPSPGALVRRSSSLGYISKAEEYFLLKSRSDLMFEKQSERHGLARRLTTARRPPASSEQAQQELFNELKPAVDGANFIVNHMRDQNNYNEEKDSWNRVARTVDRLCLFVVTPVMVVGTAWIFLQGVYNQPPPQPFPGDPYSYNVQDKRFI

Sequence of Ls-AChBP (P58154 20-229 limits assumed): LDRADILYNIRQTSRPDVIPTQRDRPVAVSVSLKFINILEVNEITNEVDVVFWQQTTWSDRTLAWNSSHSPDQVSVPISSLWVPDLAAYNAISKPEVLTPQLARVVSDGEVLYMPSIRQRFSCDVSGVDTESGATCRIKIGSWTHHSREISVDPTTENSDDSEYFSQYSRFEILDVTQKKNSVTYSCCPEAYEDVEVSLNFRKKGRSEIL

## CC(=O)OCC[N+](C)(C)C [ACh, acetylcholine]
[1]
  Kd: 0.823 µM
[2]
  pKd: 5.5

## C[N+]1(C)[C@@H]2CC[C@H]1C[C@@H](OC(=O)C(CO)c1ccccc1)C2 (stereo partly drawn) [Compound 10]
[3]
  Kd: 0.882 ± 0.117 µM
[4]
  Kd: 2.01 ± 0.137 µM
[5]
  selectivity of antagonism among LGIC-CNiFERs: nonselective antagonists
[6]
  interference with the binding of [3H] epibatidine to BPs (screening): significant interference

## CCN1C[C@]2(COC(=O)c3ccccc3N3C(=O)C[C@H](C)C3=O)CC[C@H](OC)[C@@]34[C@@H]5C[C@H]6[C@H](OC)[C@@H]5[C@](O)(C[C@@H]6OC)[C@@](O)([C@@H](OC)[C@H]23)[C@@H]14 [MLA, methyllycaconitine]
[7]
  inhibition of current response elicited by 100 μM ACh: completely inhibited
[5]; 1 µM
  percent inhibition, α7nAChR: 79 ± 6.4%

## CN1[C@@H]2CC[C@H]1C[C@@H](OC(=O)c1c[nH]c3ccccc13)C2 [Tropocitron]
[8]
  percent inhibition, 5-HT3A: 96 ± 0.6%

## C[N+](C)(C)CCOC(N)=O [carbamylcholine]
[1]; isothermal titration calorimetry using Ls-AChBP
  Kd: 7.58 µM

## CN1CCC[C@H]1c1cccnc1 [nicotine]
[2]
  pKd: 7.2

## α-Bungarotoxin
[9]
  percent inhibition, α1nAChR: 94 ± 0.8%
